The source of these data is patent US6262073A, “Pharmaceutical methods of use of 5-substituted and 5,5 disubstituted-3,4-dihydroxy-2(5H)-furanones” (Oxis International Inc., priority 2000, dated 2001).

The inhibition is the relative decrease from the control value, in per cent.

Experiment [1] relates to Nuclear Factor-kappa B (NF-κB). As to the kind of experiment: NF-κB lacZ (κB-Z) reporter assay in transfected Jurkat cells stimulated with A23187 and PMA. Type of experiment: cell-based, human. To be noted: Homo sapiens; 10 μM; κB-Z Jurkat cells, A23187 and PMA (Table III); read-out: NF-κB percent inhibition. As to the method:
The human T lymphoid cell line Jurkat was transfected with a response element lacZ reporter in which transcription of the β-galactosidase gene is directed by the binding site for the NF-κB transcription factor. […] At the end of the incubation, the cells are spun down and resuspended in the buffer and FDG (fluorescein di-β-D-galactopyranoside) solution. The covered plates are further incubated in the dark for 16 hours at 25° C. […] Compounds were screened at 10 μM.

Experiment [2] addresses T1, Cyclooxygenase-1 (cyclooxygenase from ram seminal vesicles) (Ovis aries, UniProt P05979).
T1 construct: cyclooxygenase from ram seminal vesicles; from tissue; host or cells: ram seminal vesicles
T1 sequence (P05979 25-600): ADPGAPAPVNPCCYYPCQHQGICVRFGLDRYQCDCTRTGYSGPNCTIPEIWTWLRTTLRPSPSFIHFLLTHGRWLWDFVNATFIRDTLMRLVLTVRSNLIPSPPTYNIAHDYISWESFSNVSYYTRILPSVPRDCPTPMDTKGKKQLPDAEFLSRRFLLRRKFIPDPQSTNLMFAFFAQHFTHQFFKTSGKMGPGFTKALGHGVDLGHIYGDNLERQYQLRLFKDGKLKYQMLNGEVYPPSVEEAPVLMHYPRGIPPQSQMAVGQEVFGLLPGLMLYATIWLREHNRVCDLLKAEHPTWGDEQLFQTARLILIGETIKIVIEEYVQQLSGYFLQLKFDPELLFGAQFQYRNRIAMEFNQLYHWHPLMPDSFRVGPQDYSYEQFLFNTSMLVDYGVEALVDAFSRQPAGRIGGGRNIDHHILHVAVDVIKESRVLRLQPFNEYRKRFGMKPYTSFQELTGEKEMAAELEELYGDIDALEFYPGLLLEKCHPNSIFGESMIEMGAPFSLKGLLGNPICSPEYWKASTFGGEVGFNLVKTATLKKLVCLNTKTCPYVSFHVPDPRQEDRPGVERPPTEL
As to the kind of experiment: Cyclooxygenase-1 screen (COX-1). It is filed as biochemical. To be noted: 300 μM. As to the method:
(§1) The compounds of the invention were screened for their anti-inflammatory activity using a series of in vitro tests the details of which are given below. The activity of various compounds against 5-lipoxygenase, cycloxygenase-1, cycloxygenase-2 and lipid peroxidase was evaluated. Results of the screening procedures are included in TABLE I, and the activity against 5-lipoxygenase at a test concentration of 1 μM in Table II.
Cyclooxygenase-1 is involved in the formation of prostaglandins and thromboxane via the oxidative metabolism of arachidonic acid. Briefly, cyclooxygenase from ram seminal vesicles is incubated with arachidonic acid (100 μm) for 2 minutes at 37° C. in the presence or absence of test compounds according to the methods of A. T. Evans et al., Biochem. Pharm. 36:2035-2037(1987) and R. Boopathy et al., Biochem J. 239:371-377 (1968). The assay is terminated by the addition of trichioroacetic acid and cyclooxygenase activity is determined by reading the absorbance at 530 nm. […]

Experiment [3] addresses T2, 5-Lipoxygenase (crude enzyme preparation from rat basophilic leukemia cells, RBL-1) (Rattus norvegicus, UniProt P12527).
T2 construct: crude enzyme preparation from rat basophilic leukemia cells (RBL-1); endogenous in cells; host or cells: rat basophilic leukemia cells (RBL-1)
T2 sequence (P12527 1-673): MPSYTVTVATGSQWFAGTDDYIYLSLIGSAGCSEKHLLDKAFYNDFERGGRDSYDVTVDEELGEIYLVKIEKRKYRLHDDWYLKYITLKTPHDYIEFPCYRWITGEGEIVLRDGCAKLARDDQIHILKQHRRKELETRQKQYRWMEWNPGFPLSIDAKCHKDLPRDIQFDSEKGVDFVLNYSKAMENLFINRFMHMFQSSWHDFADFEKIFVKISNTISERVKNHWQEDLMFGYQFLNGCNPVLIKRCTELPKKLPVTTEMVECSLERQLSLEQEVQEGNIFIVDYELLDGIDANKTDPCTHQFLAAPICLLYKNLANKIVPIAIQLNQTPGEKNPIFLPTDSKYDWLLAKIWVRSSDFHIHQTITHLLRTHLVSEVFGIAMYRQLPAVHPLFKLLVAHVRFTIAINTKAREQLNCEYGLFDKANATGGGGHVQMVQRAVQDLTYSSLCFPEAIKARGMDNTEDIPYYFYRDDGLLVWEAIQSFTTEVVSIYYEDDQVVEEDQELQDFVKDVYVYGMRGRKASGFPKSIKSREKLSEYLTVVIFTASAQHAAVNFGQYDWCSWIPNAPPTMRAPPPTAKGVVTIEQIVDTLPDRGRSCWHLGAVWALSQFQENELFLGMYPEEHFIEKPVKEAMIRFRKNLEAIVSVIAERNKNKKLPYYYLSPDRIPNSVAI
As to the kind of experiment: 5-Lipoxygenase screen (5-LO), 5-HETE by RIA. It is filed as biochemical. To be noted: for inhibition at 30 µM: read-out: 5-LO percent inhibition; for inhibition at 1 µM: read-out: Percent inhibition of 5-LO, test conc. 1 μM (Table II). As to the method:
as §1
5-Lipoxygenase catalyzes the oxidative metabolism of arachidonic acid to […] (5-HETE), the initial reaction leading to the formation of the leukotrienes. Briefly, the testing procedure utilizes a crude enzyme preparation from rat basophilic leukemia cells (RBL-1) according to the methods of T. Shimuzu et al. Pro. […] Test compounds are pre-incubated with the enzyme preparation for 5 minutes at room temperature and the reaction is initiated by the addition of arachidonic acid. Following an 8 minute incubation at room temperature, the reaction is terminated by the addition of citric acid and concentrations of 5-HETE are determined by RIA. Compounds are screened at 30 μM.

Experiment [4] relates to Lipid peroxidation (rat liver microsomes). As to the kind of experiment: Lipid peroxidation screen (LPO), CCl4-induced, liver microsomes. To be noted: 300 μM. It is filed as biochemical. The method, then: as §1
Lipid peroxidation is a consequence of various stimuli, including reactive free radicals. Polyunsaturated fatty acids associated with plasma membranes are degraded due to enzymatic induction by reactive agents such as CCl4, leading to cellular damage. Briefly, microsomes are prepared from rat livers and the protein concentration is determined according to the method of D. Mansuy et al., Biochem. Biophys. Res. Comm. 135:1015-1021(1986). A reaction mixture consisting of 2 mg of the microsomal preparation, an NADPH generating system, 20 mM CCl4 and test compound are incubated for 12 minutes at 37° C. The reaction is terminated by the addition of a mixture of thiobarbituric acid and trichloroacetic acid. The absorbance is read at 535 nm and is proportional to the concentration of malondialdehyde. Compounds are screened at 300 μM.

Experiment [5] addresses T3, Cyclooxygenase-2 (prostaglandin H synthetase-2) from sheep placenta (Ovis aries, UniProt P79208).
T3 construct: cyclooxygenase-2 from sheep placenta; from tissue; host or cells: sheep placenta
T3 sequence (P79208 17-603): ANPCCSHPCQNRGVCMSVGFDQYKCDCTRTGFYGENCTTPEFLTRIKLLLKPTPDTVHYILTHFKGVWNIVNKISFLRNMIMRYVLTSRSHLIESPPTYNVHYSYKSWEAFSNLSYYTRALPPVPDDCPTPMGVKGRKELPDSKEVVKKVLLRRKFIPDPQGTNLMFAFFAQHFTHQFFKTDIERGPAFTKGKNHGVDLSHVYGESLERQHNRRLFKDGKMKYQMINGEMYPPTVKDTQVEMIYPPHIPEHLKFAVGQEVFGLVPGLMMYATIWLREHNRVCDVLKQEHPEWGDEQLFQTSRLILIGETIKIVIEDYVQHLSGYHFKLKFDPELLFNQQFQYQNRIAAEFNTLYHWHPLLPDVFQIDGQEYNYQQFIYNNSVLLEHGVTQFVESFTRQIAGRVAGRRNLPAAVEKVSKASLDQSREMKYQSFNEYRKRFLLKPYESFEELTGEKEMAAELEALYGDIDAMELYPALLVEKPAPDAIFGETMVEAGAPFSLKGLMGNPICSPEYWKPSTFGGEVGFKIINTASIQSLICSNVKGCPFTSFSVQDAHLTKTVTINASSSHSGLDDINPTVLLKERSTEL
The experiment is described as follows: Cyclooxygenase-2 screen (COX-2). Type of experiment: biochemical. To be noted: read-out: COX-2 percent inhibition. As to the method:
as §1
Cyclooxygenase-2, also known as prostaglandin H synthetase-2, catalyzes the rate- limiting step in the synthesis of inflammatory prostaglandins. In this reaction cyclooxygenase-2 catalyzes the oxygenation of unesterified precursors to form cyclic endoperoxide derivatives, including prostaglandin H. Briefly, cyclooxygenase-2 from sheep placenta, 14 μg/assay tube, is incubated with arachidonic acid (500 μM) for 1.5 minutes at 27° C. in the absence or presence of test compounds according to the methods of A. T. Evans, et al., Biochem Pharm. […] Res. Comm. […] Compounds are screened at 300 μM.

As for `CCCC1(c2ccc(-c3ccccc3)cc2)OC(=O)C(O)=C1O` (stereo not drawn) [Example 5, 5-[(1,1'-Biphenyl)-4-yl]-3,4-dihydroxy-5-propyl-2(5H)-furanone], the inhibition at 10 µM in experiment [1] amounted to 68%. Also, the COX-1 percent inhibition in experiment [2] is on record as 13%. Moreover, in experiment [3], the inhibition at 30 µM was determined as 99% and the inhibition at 1 µM is 68%. The LPO percent inhibition in experiment [4] is listed as 70%. Besides, the inhibition at 300 µM in experiment [5] was 22%.
Take `CC(C)CC1(c2ccc(-c3ccccc3)cc2)OC(=O)C(O)=C1O` (stereo not drawn) [Example 6, 5-[(1,1'-Biphenyl)-4-yl]-3,4-dihydroxy-5-(2-methylpropyl)-2(5H)-furanone]: in experiment [1], the inhibition at 10 µM is 59%. In experiment [2], this compound gave a COX-1 percent inhibition of 67%. Also, in experiment [3], the inhibition at 30 µM was 96% and the inhibition at 1 µM was determined as 70%. The compound further displayed an LPO percent inhibition in experiment [4] of 82%. Further, the inhibition at 300 µM in experiment [5] came to 46%.
Take `O=C1OC(c2ccccc2)(c2ccc(-c3ccccc3)cc2)C(O)=C1O` (stereo not drawn) [Example 7, 5-[(1,1'-Biphenyl)-4-yl]-3,4-dihydroxy-5-phenyl-2(5H)-furanone]: the inhibition at 10 µM in experiment [1] was determined as 21%. Besides, in experiment [2], the COX-1 percent inhibition is 52%. For the same compound, in experiment [3], the inhibition at 30 µM is 102% and the inhibition at 1 µM stood at 61%. Also, the LPO percent inhibition in experiment [4] is recorded as 73%. Also, the inhibition at 300 µM in experiment [5] is 34%.
For `O=C1OC(c2ccccc2)(c2ccccc2)C(O)=C1O` [Example 8, 3,4-Dihydroxy-5,5-diphenyl-2(5H)-furanone], the inhibition at 10 µM in experiment [1] was determined as 33%. The compound further registered a COX-1 percent inhibition in experiment [2] of 15%. Besides, in experiment [3], the inhibition at 30 µM came to 94% and the inhibition at 1 µM came out at 15%. In experiment [4], this compound had an LPO percent inhibition of 70%. Besides, the inhibition at 300 µM in experiment [5] was 17%.
In the case of `CCCC1(c2ccc(CC(C)C)cc2)OC(=O)C(O)=C1O` (stereo not drawn) [Example 9, 3,4-Dihydroxy-5-(4-isobutylphenyl)-5-(1-propyl)-2(5H)-furanone], the inhibition at 10 µM in experiment [1] worked out at 26%. The COX-1 percent inhibition in experiment [2] turned out to be 25%. In experiment [3], the inhibition at 30 µM came to 82% and the inhibition at 1 µM stood at 40%. In experiment [4], this compound displayed an LPO percent inhibition of 79%. Besides, the inhibition at 300 µM in experiment [5] came to 19%.
For `CC(C)Cc1ccc(C2(c3ccccc3)OC(=O)C(O)=C2O)cc1` (stereo not drawn) [Example 10, 3,4-Dihydroxy-5-(4-isobutylphenyl)-5-phenyl-2(5H)-furanone], in experiment [1], the inhibition at 10 µM came to 16%. The same compound showed a COX-1 percent inhibition in experiment [2] of 43%. Further, in experiment [3], the inhibition at 30 µM stood at 106% and the inhibition at 1 µM is 64%. Besides, the LPO percent inhibition in experiment [4] is 89%. Further, the inhibition at 300 µM in experiment [5] was determined as 34%.
As to `C[C@@]1(c2ccc(-c3ccccc3)cc2)OC(=O)C(O)=C1O` [Example 11, (S)-(+)-5-[(1,1'-Biphenyl)-4-yl]-3,4-dihydroxy-5-methyl-2(5H)-furanone], the inhibition at 10 µM in experiment [1] came out at 72%. In experiment [2], this compound gave a COX-1 percent inhibition of 34%. In experiment [3], the inhibition at 30 µM came to 101% and the inhibition at 1 µM was determined as 59%. The same compound displayed an LPO percent inhibition in experiment [4] of 71%. The inhibition at 300 µM in experiment [5] is 10%.
As for `C[C@]1(c2ccc(-c3ccccc3)cc2)OC(=O)C(O)=C1O` [Example 12, (R)-(-)-5-[(1,1'-Biphenyl)-4-yl]-3,4-dihydroxy-5-methyl-2(5H)-furanone], the inhibition at 10 µM in experiment [1] came out at 56%. In experiment [2], this compound came in with a COX-1 percent inhibition of 10%. In addition, in experiment [3], the inhibition at 30 µM was determined as 101% and the inhibition at 1 µM is 60%. The same compound displayed an LPO percent inhibition in experiment [4] of 62%. Besides, the inhibition at 300 µM in experiment [5] was found to be 12%.
With `CC(C)Cc1ccc([C@@]2(C)OC(=O)C(O)=C2O)cc1` [Example 13, (R)-(-)-3,4-Dihydroxy-5-methyl-5-[4-(2-methylpropyl)phenyl]-2(5H)-furanone], the inhibition at 10 µM in experiment [1] was found to be 49%. The compound also registered a COX-1 percent inhibition in experiment [2] of 12%. In experiment [3], the inhibition at 30 µM is 102% and the inhibition at 1 µM was determined as 59%. The compound further displayed an LPO percent inhibition in experiment [4] of 76%. For the same compound, the inhibition at 300 µM in experiment [5] turned out to be 14%.
As for `CC(C)Cc1ccc([C@]2(C)OC(=O)C(O)=C2O)cc1` [Example 14, (S)-(+)-3,4-Dihydroxy-5-methyl-5-[4-(2-methylpropyl)phenyl]-2(5H)-furanone], the inhibition at 10 µM in experiment [1] came out at 60%. Further, the COX-1 percent inhibition in experiment [2] was 12%. For the same compound, in experiment [3], the inhibition at 30 µM turned out to be 96% and the inhibition at 1 µM is 50%. In addition, the LPO percent inhibition in experiment [4] turned out to be 66%. In experiment [5], the inhibition at 300 µM came to 18%.
